Test results: article PMC4669789, “Selective inhibition of HDAC8 decreases neuroblastoma growth in vitro and in vivo and enhances retinoic acid-mediated differentiation” (Cell Death & Disease, 2015)

Experiments:
[1] = system: BE(2)-C cells; test: Longer-term colony assay; type: cell-based, human; details: ATRA 10 μM, 18 days, empty vector control cells
Experimental: In six-well plates, 500 cells were seeded and treated as indicated. Viable colonies were stained after a minimum of 10 days with crystal violet. For quantification, the mean intensity of each well of the 8-bit binary picture was measured with ImageJ software (U. S. National Institutes of Health, Bethesda, MD, USA; http://imagej.nih.gov/ij/).

[2] = system: BE(2)-C cells; test: Western blot of histone 4, α-tubulin and SMC3 acetylation; type: cell-based, human; details: working concentrations: 40 μM Cpd2, 4 μM PCI-34051 and PCI-48000
Experimental: Western blot analysis was performed as described previously.[15] For detection of phosphoproteins, PhosStop (Roche, Penzberg, Germany) was added to the lysis buffer.

[3] = system: neuroblastoma cell culture; test: Intracellular whole lysine acetylation via FACS; type: cell-based, human
Experimental: Cells were collected, washed with PBS and fixed with 2% paraformaldehyde for 15 min at room temperature (RT). Cells were permeabilized by incubation with 50 μg/ml digitonin for 6 min at RT. Cells were incubated with primary antibody overnight at 4 °C. After staining with Cy3-conjugated anti-rabbit antibody, cells were analyzed by FACS using CellQuest software (BD Biosciences, San Jose, CA, USA). The following primary antibodies were used: anti-acetylated lysine (polyclonal; Cell Signaling) and anti-neurofilament-M (clone EP2460; Epitomics, Burlingame, CA, USA).

[4] = system: nude mice; test: Tolerability during xenograft and long-term treatment (body weight, clinical signs); details: mouse, in vivo
Excerpt: Next, we determined the in vivo efficacy of HDAC8-selective inhibition in neuroblastoma xenograft mouse models. […] One week after tumor cell injection, mice established a palpable tumor mass and the animals were then randomly assigned to treatment and control cohorts.

[5] = system: PBMCs; test: Whole lysine acetylation in PBMC after intraperitoneal administration (FACS); type: in vivo, mouse; details: 150 mg/kg/d; solvent 32.1
Experimental: Both inhibitors were intraperitoneally injected into NMRI Foxn1 nude mice in increasing doses from 40 up to 400 mg/kg per day for 2 × 5 days. Each dose was tested in a cohort of three animals. Resulting MTDs were validated within cohorts of eight animals for each inhibitor. […] As a reference, the blood of 12 untreated NMRI Foxn1 nude mice was analyzed. […] Vorinostat was used as a control for unselective HDAC inhibition.
Whole blood (100 μl) was collected from the femoral vein of untreated athymic NMRI nude mice (HsdCpb:NMRI-Foxn1^nu; Harlan Laboratories Inc.), and respective animals were killed 2 h after intraperitoneal injection of substances. For the analysis of whole acetylation levels, mice were killed at half-life time of the inhibitors. Whole blood with heparin was added to RBC lysis buffer (diluted 1 : 10) (BioLegend, San Diego, CA, USA) at a ratio of 1 : 4. Next, red blood cell lysis was performed according to the manufacturer's instructions. PBMCs were lysed in SDS lysis buffer for western blot or processed for FACS analysis.

[6] = system: NMRI Foxn1 nude mice; details: mouse, in vivo; cited from earlier work

CC1=C(/C=C/C(C)=C/C=C/C(C)=C/C(=O)O)C(C)(C)CCC1 [ATRA, all-trans retinoic acid]
colony formation [1]: efficiently reduced the ability of empty vector control cells to form colonies

COc1ccc(Cn2ccc3ccc(C(=O)NO)cc32)cc1 [PCI-34051]
SMC3 acetylation (HDAC8 substrate) [2]: increase in acetylation level
histone 4 acetylation (HDAC1-3 substrate) [2]: absence of HDAC1-3 substrate acetylation
tubulin acetylation (HDAC6 substrate) [2]: absence of HDAC6 substrate acetylation

CC(/C=C/C(=O)NO)=C\[C@@H](C)C(=O)c1ccc(N(C)C)cc1 [TSA, trichostatin A]
whole acetyl-lysine mean fluorescent values (Blank-corrected) ([3]; 75nM, solvent 34.4, second experiment): 92.7
whole acetyl-lysine mean fluorescent values (Blank-corrected) ([3]; 150nM, solvent 24.7, IMR-32 cells, 24 h per Figure 1c): 115.1
global lysine acetylation ([3]; pan-HDAC inhibitor control, compared with HDAC8 inhibitors): much stronger induction of global lysine acetylation

O=C(CCCCCCC(=O)Nc1ccccc1)NO [vorinostat, suberoylanilide hydroxamic acid]
tolerability at the applied dose [4]: clear signs of toxicity, such as diarrhea and weight loss
whole acetyl-lysine mean fluorescent values (Blank-corrected), PBMCs [5]: 54.0
MTD [6]: 150 mg/kg per day
